Experimental data from patent US20140316217A1, “SYSTEM AND METHOD FOR MONITORING ANESTHESIA AND SEDATION USING MEASURES OF BRAIN COHERENCE AND SYNCHRONY” (priority 2013, published 2014).
Several values for one entry are separate records, joined by “and”; a condition that tells them apart may be missing. Equal values may be shown once.

Legend:
volunteers [1] = settings: for frequency range of increase in coherence on the coherogram compared to baseline: sedation
volunteers [2] = settings: for frequency range of increased power in the spectrogram compared to baseline: sedation, visually evident
Source text: (§1) The power spectral density, also referred to as the power spectrum or spectrum, quantifies the frequency distribution of energy or power within a signal. The spectrogram is a time-varying version of the spectrum. […] In these spectrograms, frequencies are arranged along the y-axis, and time along the x-axis, and power is indicated by color on a decibel (dB) scale. […] Spectra and spectrograms were computed using the multitaper method, implemented in the Chronux toolbox (http://chronux.orq). The multitaper method was chosen specifically because it allows the spectral resolution to be set precisely, which is desirable in observing many anesthesia-related phenomena. Moreover, for a particular choice of spectral resolution, the multitaper method offers lower bias and lower variance than traditional nonparametric spectral estimation methods.
(§2) Group-level spectrograms were computed by taking the median across volunteers. Spectra were also calculated for selected EEG epochs. The resulting spectra were then averaged for all epochs, and 95% confidence intervals were computed via taper-based jackknife techniques. The spectral analysis parameters included window length T=4 s with 0 s overlap, time-bandwidth product TW=3, number of tapers K=5, and spectral resolution 2 W of 1.5 Hz. Peak power, and its frequency, was estimated for the dex-spindle, travelling peak, and frontal alpha oscillations for each individual subject. Averages across subjects were performed to obtain the group-level peak power and frequency for these oscillations.
(§3) To compare spectral and coherence estimates between groups, jackknife-based methods were used, namely the two-group test for spectra (TGTS), and the two-group test for coherence (TGTC), as implemented by the Chronux toolbox (http://www.chronukorg). This method accounts for the underlying spectral resolution of the spectral and coherence estimates, and considers differences to be significant if they are present for contiguous frequencies over a range greater than the spectral resolution 2 W. Specifically, for frequencies f>2 W, the null hypothesis was rejected only if the test statistic exceeded the significance threshold over a contiguous frequency range ≧2 W. For frequencies 0≦f≦2 W, to account for the properties of multitaper spectral estimates at frequencies close to zero, the null hypothesis was rejected only if the test statistic exceeded the significance threshold over a contiguous frequency range from 0 to max(f,W)≦2 W. A significance threshold of p<0.05 was selected for within group comparisons and p<0.001 for between group comparisons, applying a Bonferonni correction for multiple comparisons where appropriate.
Volunteers were instructed to close their eyes throughout the study to avoid eye-blink artifacts in the EEG. Volunteers were presented with auditory stimuli during the study and asked to respond by button presses to assess the level of conscious behavior. The stimuli consisted of the volunteer's name presented every two minutes. Button-press stimuli were recorded using a custom-built computer mouse with straps fitted to hold the first and second fingers in place over the mouse buttons. The mouse was also lightly strapped to the subject's hand using tape and an arterial line board to ensure that responses could be recorded accurately.
We applied an anti-aliasing filter and down-sampled the EEG data to 250 Hz before analysis. EEG signals were re-montaged to a nearest-neighbor Laplacian reference, using distances along the scalp surface to weigh neighboring electrode contributions. First, 2-minute EEG segments were selected from all subjects during the awake, eyes closed baseline. Eye closure facilitates distinguishing between normal awake, eyes-closed occipital alpha oscillations and the frontal alpha oscillations associated with anesthesia induced altered arousal. EEG data segments were selected based on the behavioral response.

patient = settings: anesthetized with ketamine alone or in combination with other anesthetic agents; cited from earlier work
[3] = tested on: dopaminergic arousal pathway; test: Methylphenidate-induced emergence from isoflurane general anesthesia; plethysmography and blood gas experiments; type: in vivo
Source text: MPH can be used to restore consciousness, induce electroencephalogram changes consistent with arousal, and increase respiratory drive. The behavioral and respiratory effects induced by methylphenidate can be inhibited by droperidol, supporting the evidence that methylphenidate induces arousal by activating a dopaminergic arousal pathway.

patients [4] = test: Frontal EEG coherence analysis during sevoflurane and propofol general anesthesia (patients, Sedline monitor); type: in vivo, human
patients [5] = test: Frontal EEG spectral analysis during sevoflurane and propofol general anesthesia (patients, Sedline monitor); type: in vivo, human; settings: mean±std
Source text: as §1, §2, §3

[6] = dexmedetomidine sedation, propofol-induced unconsciousness
[7] = dexmedetomidine sedation, mean±std
[8] = propofol-induced unconsciousness, dexmedetomidine sedation
[9] = general anesthesia, P<0.001 TGTC
[10] = propofol-induced unconsciousness

## Cc1cccc([C@H](C)c2cnc[nH]2)c1C [dexmedetomidine]
Volunteers [1]; dexmedetomidine sedation
  coherence peak frequency (dex-spindle): 13.3 Hz
  peak coherence (dex-spindle): 0.78±0.08
Volunteers [1]; [6]
  frequency range of decrease in coherence on the coherogram compared to baseline: 0.1-1 Hz
Volunteers [1]
  frequency range of increase in coherence on the coherogram compared to baseline: 1-15 Hz
Volunteers [2]; dexmedetomidine sedation, P<0.05 TGTS
  frequency range in which EEG power was lower than baseline: 17.4-40 Hz
Volunteers [2]; [7]
  dex-spindle oscillation peak frequency (EEG power): 13.1 Hz and ~13 Hz
  dex-spindle oscillation peak power: −10.2 dB
Volunteers [2]; dexmedetomidine sedation, summary
  frequency at which maximum power and coherence of spindles occur: 13-14 Hz
Volunteers [2]; [8]
  slow oscillations power: 1.8 dB
Volunteers [2]
  frequency range of increased power in the spectrogram compared to baseline: 2-15 Hz

## CNC1(c2ccccc2Cl)CCCCC1=O (centres unmarked) [ketamine]
patient
  BIS values: high BIS values

## COC(=O)C(c1ccccc1)C1CCCCN1 (centres unmarked) [methylphenidate]
[3]; isoflurane general anesthesia
  emergence from general anesthesia: actively induces emergence from isoflurane general anesthesia
[3]; plethysmography and blood gas experiments
  minute ventilation: increases minute ventilation

## CC(C)c1cccc(C(C)C)c1O [propofol]
Patients [4]; general anesthesia
  alpha oscillation coherence peak frequency: 10.2 Hz
Patients [4]; [9]
  frequency range in which propofol exhibited increased EEG coherence versus sevoflurane: 11.7-19.5 Hz
Patients [4]; propofol general anesthesia
  alpha oscillation peak coherence: 0.71 dB
Volunteers [1]; P<0.0005 TGTC
  frequency range in which coherence was higher during propofol-induced unconsciousness than dexmedetomidine sedation: 9.5-11.7 Hz
  frequency ranges in which coherence was larger during propofol-induced sedation than dexmedetomidine sedation: 19.8-26.4 Hz and 26.9-29.3 Hz
Volunteers [1]; [6]
  frequency range of decrease in coherence on the coherogram compared to baseline: 0.1-1 Hz
Volunteers [1]; propofol peak max (unconsciousness), P<0.025 TGTC
  frequency range of decreased slow oscillation coherence versus baseline: 0.1-1.7 Hz
Volunteers [1]; propofol sedation
  coherence peak frequency (traveling-peak): 16.1 Hz
  peak coherence (traveling-peak): 0.69±0.05
Volunteers [1]; [10]
  alpha oscillation peak coherence: 0.85±0.05
  centre of the narrow band of alpha oscillation coherence: ~10 Hz
Volunteers [1]; propofol-induced unconsciousness, P<0.025 TGTC
  frequency range of significant increase in coherence versus baseline: 4-15.9 Hz
Volunteers [1]
  frequency range of increase in coherence on the coherogram compared to baseline: 1-25 Hz
Volunteers [2]; [10]
  frontal alpha oscillations power: 2.5 dB
  size of slow oscillations compared with dexmedetomidine sedation: almost an order of magnitude larger
Volunteers [2]; [8]
  slow oscillations power: 19.2 dB
Volunteers [2]
  frequency range of increased power in the spectrogram compared to baseline: 1-25 Hz
Patients [5]
  alpha oscillation peak frequency (EEG power): 10.3 Hz
  alpha oscillation peak power: 2.1 dB

## FCOC(C(F)(F)F)C(F)(F)F [sevoflurane]
Patients [4]; general anesthesia
  alpha oscillation coherence peak frequency: 9.8 Hz
  theta coherence peak frequency: 4.9 Hz
  theta peak coherence: 0.58±0.1
Patients [4]; [9]
  frequency range in which sevoflurane exhibited increased EEG coherence versus propofol: 3.41-10.7 Hz
Patients [4]; general anesthesia, summary
  frequency at which maximum power and coherence of coherent alpha oscillations occur: 10-12 Hz
Patients [4]; sevoflurane anesthesia
  frequency of coherent theta oscillations: ~5 Hz
Patients [4]; sevoflurane general anesthesia
  alpha oscillation peak coherence: 0.73±0.1
Patients [5]
  alpha oscillation peak frequency (EEG power): 9.2 Hz
  alpha oscillation peak power: 4.3 dB
